Experimental data as given in US7939526B2, “Sulfone substituted imidazo ring ethers” (3M Innovative Properties Company, priority 2003, dated 2011).

SMILES | melting point
CCCc1nc2c(N)nc3ccccc3c2n1CCOCCCSC [Example 17, 1-{2-[3-(Methylthio)propoxy]ethyl}-2-propyl-1H-imidazo[4,5-c]quinolin-4-amine] | 99 to 101 °C
Cc1nc2c(N)nc3ccccc3c2n1CCOCCS(C)(=O)=O [Example 1, 2-Methyl-1-{2-[2-(methylsulfonyl)ethoxy]ethyl}-1H-imidazo[4,5-c]quinolin-4-amine] | 214 to 217 °C
CCc1nc2c(N)nc3ccccc3c2n1CCOCCS(C)(=O)=O [Example 5, 2-Ethyl-1-{2-[2-(methylsulfonyl)ethoxy]ethyl}-1H-imidazo[4,5-c]quinolin-4-amine] | 160 to 163 °C
COCCc1nc2c(N)nc3ccccc3c2n1CCOCCS(C)(=O)=O [Example 7, 2-(2-Methoxyethyl)-1-{2-[2-(methylsulfonyl)ethoxy]ethyl}-1H-imidazo[4,5-c]quinolin-4-amine] | 142 to 144 °C
CCOCc1nc2c(N)nc3ccccc3c2n1CCOCCS(C)(=O)=O [Example 6, 2-(Ethoxymethyl)-1-{2-[2-(methylsulfonyl)ethoxy]ethyl}-1H-imidazo[4,5-c]quinolin-4-amine] | 158 to 160 °C
CCCc1nc2c(N)nc3ccccc3c2n1CCOCCCS(=O)(=O)C(C)C [Example 14, 1-(2-{3-[(1-Methylethyl)sulfonyl]propoxy}ethyl)-2-propyl-1H-imidazo[4,5-c]quinolin-4-amine] | 176 to 177 °C

Other lines, results leading:

melting point | SMILES
253 to 255 °C | Cc1nc2c(N)nc3ccccc3c2n1CC(C)(C)OCCS(C)(=O)=O [Example 21, 2-Methyl-1-{2-methyl-2-[2-(methylsulfonyl)ethoxy]propyl}-1H-imidazo[4,5-c]quinolin-4-amine]
149 to 151 °C | CCCc1nc2c(N)nc3ccccc3c2n1CCOCCCS(C)(=O)=O [Example 19, 1-{2-[3-(Methylsulfonyl)propoxy]ethyl}-2-propyl-1H-imidazo[4,5-c]quinolin-4-amine]
186 to 189 °C | COCc1nc2c(N)nc3ccccc3c2n1CC(C)(C)OCCS(C)(=O)=O [Example 38, 2-(Methoxymethyl)-1-{2-methyl-2-[2-(methylsulfonyl)ethoxy]propyl}-1H-imidazo[4,5-c]quinolin-4-amine]
159 to 161 °C | CCOCc1nc2c(N)nc3ccccc3c2n1CC1(OCCS(C)(=O)=O)CCCCC1 [Example 24, 2-(Ethoxymethyl)-1-({1-[2-(methylsulfonyl)ethoxy]cyclohexyl}methyl)-1H-imidazo[4,5-c]quinolin-4-amine]
148 to 151 °C | CCCc1nc2c(N)nc3ccccc3c2n1CCOCCC[S+](C)[O-] (stereo not shown) [Example 18]
189 to 191 °C | CCOCc1nc2c(N)nc3cccnc3c2n1CC(C)(C)OCCS(C)(=O)=O [Example 40, 2-Ethoxymethyl-1-{2-[2-(methylsulfonyl)ethoxy]-2-methylpropyl}-1H-imidazo[4,5-c][1,5]naphthyridin-4-amine]
146 to 148 °C | CCCCc1nc2c(N)nc3c(c2n1CC(C)(C)OCCS(C)(=O)=O)CCCC3 [Example 33, 2-Butyl-1-{2-methyl-2-[2-(methylsulfonyl)ethoxy]propyl}-6,7,8,9-tetrahydro-1H-imidazo[4,5-c]quinolin-4-amine]
